Assay results reported in patent US9738634B2, “Heterocyclic amide compound and herbicide” (SYNGENTA PARTICIPATIONS AG, priority 2013, dated 2017).

Assays:
Assay type in all cases: in vivo
Details in all cases: treatment dosage 320 g/ha
bulrush [1] = test: Test Example 2: weedkilling efficacy, growth period weed treatment in the submerged state; B: bulrush
In short: (§1)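 First, alluvial soil in pots is flooded to 4 cm and mixed seed is sown. Next, plants grow in a greenhouse at 25 to 30° C until the 1-2 leaf stage. Then diluted emulsion is applied onto the water surface at the given g/ha rate, and injury is assessed after 3 weeks.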

birds-eye speedwell [2] = test: Test Example 3: weedkilling efficacy through soil treatment; p: birds-eye speedwell
In short: (§2)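 Crop and weed responses were judged three weeks after a uniform surface spray of the water-diluted emulsion at the given g/ha rate. Seeds sat beneath about 1.5 cm of sterilized diluvial soil, and boxes stood in a greenhouse at 25 to 30° C.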

crabgrass [3] = test: Test Example 4: weedkilling efficacy by foliar treatment; D: crabgrass
In short: (§3)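 Seeds are spot-sown into sterilized diluvial soil and covered with about 1.5 cm of soil. After 14 days' greenhouse growth at 25 to 30° C, plants are sprayed on stems and leaves with diluted emulsion at the stated g/ha rate, then scored at 3 weeks.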

catchweed [4] = test: Test Example 3: weedkilling efficacy through soil treatment; O: catchweed
In short: as §2

bulrush [5] = test: Test Example 1: weedkilling efficacy, preemergent weed treatment in the submerged state; B: bulrush
In short: (§4)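 Alluvial soil in Wagner pots flooded to 4 cm; barnyard grass, bulrush and oval-leafed pondweed seeds sown, then 2.5-leaf rice seedlings transplanted. Same day, emulsified compound diluted in water to set g/ha dosages and applied to water surface; greenhouse 25–30 °C, effect scored by criteria after 3 weeks.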

barnyard grass [6] = test: Test Example 2: weedkilling efficacy, growth period weed treatment in the submerged state; A: barnyard grass
In short: as §1

chickweed [7] = test: Test Example 4: weedkilling efficacy by foliar treatment; N: chickweed
In short: as §3

barnyard grass [8] = test: Test Example 4: weedkilling efficacy by foliar treatment; F: barnyard grass
In short: as §3

wild oat [9] = test: Test Example 3: weedkilling efficacy through soil treatment; G: wild oat
In short: as §2

barnyard grass [10] = test: Test Example 3: weedkilling efficacy through soil treatment; F: barnyard grass
In short: as §2

fig-leafed goosefoot [11] = test: Test Example 4: weedkilling efficacy by foliar treatment; M: fig-leafed goosefoot
In short: as §3

redroot pigweed [12] = test: Test Example 4: weedkilling efficacy by foliar treatment; L: redroot pigweed
In short: as §3

redroot pigweed [13] = test: Test Example 3: weedkilling efficacy through soil treatment; L: redroot pigweed
In short: as §2

transplanted rice = test: Test Example 1: preemergent weed treatment in the submerged state, effect on crop; a: transplanted rice
In short: as §4

oval-leafed pondweed [14] = test: Test Example 2: weedkilling efficacy, growth period weed treatment in the submerged state; C: oval-leafed pondweed
In short: as §1

soybean [15] = test: Test Example 3: soil treatment, effect on crop; d: soybean
In short: as §2

beet [16] = test: Test Example 4: foliar treatment, effect on crop; f: beet
In short: as §3

barnyard grass [17] = test: Test Example 1: weedkilling efficacy, preemergent weed treatment in the submerged state; A: barnyard grass
In short: as §4

oval-leafed pondweed [18] = test: Test Example 1: weedkilling efficacy, preemergent weed treatment in the submerged state; C: oval-leafed pondweed
In short: as §4

wheat [19] = test: Test Example 4: foliar treatment, effect on crop; e: wheat
In short: as §3

corn [20] = test: Test Example 4: foliar treatment, effect on crop; c: corn
In short: as §3

black-grass [21] = test: Test Example 3: weedkilling efficacy through soil treatment; H: black-grass
In short: as §2

corn [22] = test: Test Example 3: soil treatment, effect on crop; c: corn
In short: as §2

birds-eye speedwell [23] = test: Test Example 4: weedkilling efficacy by foliar treatment; p: birds-eye speedwell
In short: as §3

crabgrass [24] = test: Test Example 3: weedkilling efficacy through soil treatment; D: crabgrass
In short: as §2

common wind-grass [25] = test: Test Example 4: weedkilling efficacy by foliar treatment; J: common wind-grass
In short: as §3

Italian ryegrass [26] = test: Test Example 3: weedkilling efficacy through soil treatment; I: Italian ryegrass
In short: as §2

green foxtail [27] = test: Test Example 4: weedkilling efficacy by foliar treatment; E: green foxtail
In short: as §3

beet [28] = test: Test Example 3: soil treatment, effect on crop; f: beet
In short: as §2

directly sown rice [29] = test: Test Example 3: soil treatment, effect on crop; b: directly sown rice
In short: as §2

green foxtail [30] = test: Test Example 3: weedkilling efficacy through soil treatment; E: green foxtail
In short: as §2

wild oat [31] = test: Test Example 4: weedkilling efficacy by foliar treatment; G: wild oat
In short: as §3

common wind-grass [32] = test: Test Example 3: weedkilling efficacy through soil treatment; J: common wind-grass
In short: as §2

chickweed [33] = test: Test Example 3: weedkilling efficacy through soil treatment; N: chickweed
In short: as §2

black-grass [34] = test: Test Example 4: weedkilling efficacy by foliar treatment; H: black-grass
In short: as §3

rapeseed [35] = test: Test Example 4: foliar treatment, effect on crop; g: rapeseed
In short: as §3

catchweed [36] = test: Test Example 4: weedkilling efficacy by foliar treatment; O: catchweed
In short: as §3

wheat [37] = test: Test Example 3: soil treatment, effect on crop; e: wheat
In short: as §2

Italian ryegrass [38] = test: Test Example 4: weedkilling efficacy by foliar treatment; I: Italian ryegrass
In short: as §3

soybean [39] = test: Test Example 4: foliar treatment, effect on crop; d: soybean
In short: as §3

Indian mallow [40] = test: Test Example 3: weedkilling efficacy through soil treatment; K: Indian mallow
In short: as §2

fig-leafed goosefoot [41] = test: Test Example 3: weedkilling efficacy through soil treatment; M: fig-leafed goosefoot
In short: as §2

directly sown rice [42] = test: Test Example 4: foliar treatment, effect on crop; b: directly sown rice
In short: as §3

Indian mallow [43] = test: Test Example 4: weedkilling efficacy by foliar treatment; K: Indian mallow
In short: as §3

rapeseed [44] = test: Test Example 3: soil treatment, effect on crop; g: rapeseed
In short: as §2

## CC1=C(c2ccccc2)C(=O)N(C(C)(C)C(=O)Nc2cc(C(F)F)cc(Cl)n2)CO1 [B-2-44]
Bulrush [1]
  B (bulrush) weedkilling efficacy grade: 5 (weed kill ratio 90% or more, (practically complete withering))
birds-eye speedwell [2]
  P (birds-eye speedwell) weedkilling efficacy grade: 4 (weed kill ratio 70% or more, less than 90%)
Crabgrass [3]
  D (crabgrass) weedkilling efficacy grade: 4 (weed kill ratio 70% or more, less than 90%)
Catchweed [4]
  O (catchweed) weedkilling efficacy grade: 0 (weed kill ratio 5% or less (practically no effect))
Bulrush [5]
  B (bulrush) weedkilling efficacy grade: 5 (weed kill ratio 90% or more, (practically complete withering))
Barnyard grass [6]
  A (barnyard grass) weedkilling efficacy grade: 5 (weed kill ratio 90% or more, (practically complete withering))
Chickweed [7]
  N (chickweed) weedkilling efficacy grade: 4 (weed kill ratio 70% or more, less than 90%)
Barnyard grass [8]
  F (barnyard grass) weedkilling efficacy grade: 4 (weed kill ratio 70% or more, less than 90%)
Wild oat [9]
  G (wild oat) weedkilling efficacy grade: 2 (weed kill ratio 20% or more, less than 40%)
Barnyard grass [10]
  F (barnyard grass) weedkilling efficacy grade: 5 (weed kill ratio 90% or more, (practically complete withering))
fig-leafed goosefoot [11]
  M (fig-leafed goosefoot) weedkilling efficacy grade: 3 (weed kill ratio 40% or more, less than 70%)
Redroot pigweed [12]
  L (redroot pigweed) weedkilling efficacy grade: 3 (weed kill ratio 40% or more, less than 70%)
Redroot pigweed [13]
  L (redroot pigweed) weedkilling efficacy grade: 0 (weed kill ratio 5% or less (practically no effect))
Transplanted rice
  a (transplanted rice) effect on crop grade: 5 (weed kill ratio 90% or more, (practically complete withering))
oval-leafed pondweed [14]
  C (oval-leafed pondweed) weedkilling efficacy grade: 5 (weed kill ratio 90% or more, (practically complete withering))
Soybean [15]
  d (soybean) effect on crop grade: 0 (weed kill ratio 5% or less (practically no effect))
Beet [16]
  f (beet) effect on crop grade: 3 (weed kill ratio 40% or more, less than 70%)
Barnyard grass [17]
  A (barnyard grass) weedkilling efficacy grade: 5 (weed kill ratio 90% or more, (practically complete withering))
oval-leafed pondweed [18]
  C (oval-leafed pondweed) weedkilling efficacy grade: 5 (weed kill ratio 90% or more, (practically complete withering))
Wheat [19]
  e (wheat) effect on crop grade: 4 (weed kill ratio 70% or more, less than 90%)
Corn [20]
  c (corn) effect on crop grade: 1 (weed kill ratio 5% or more, less than 20%)
black-grass [21]
  H (black-grass) weedkilling efficacy grade: 5 (weed kill ratio 90% or more, (practically complete withering))
Corn [22]
  c (corn) effect on crop grade: 0 (weed kill ratio 5% or less (practically no effect))
birds-eye speedwell [23]
  P (birds-eye speedwell) weedkilling efficacy grade: 5 (weed kill ratio 90% or more, (practically complete withering))
Crabgrass [24]
  D (crabgrass) weedkilling efficacy grade: 5 (weed kill ratio 90% or more, (practically complete withering))
Common wind-grass [25]
  J (common wind-grass) weedkilling efficacy grade: 5 (weed kill ratio 90% or more, (practically complete withering))
Italian ryegrass [26]
  I (Italian ryegrass) weedkilling efficacy grade: 5 (weed kill ratio 90% or more, (practically complete withering))
Green foxtail [27]
  E (green foxtail) weedkilling efficacy grade: 5 (weed kill ratio 90% or more, (practically complete withering))
Beet [28]
  f (beet) effect on crop grade: 3 (weed kill ratio 40% or more, less than 70%)
Directly sown rice [29]
  b (directly sown rice) effect on crop grade: 3 (weed kill ratio 40% or more, less than 70%)
Green foxtail [30]
  E (green foxtail) weedkilling efficacy grade: 5 (weed kill ratio 90% or more, (practically complete withering))
Wild oat [31]
  G (wild oat) weedkilling efficacy grade: 3 (weed kill ratio 40% or more, less than 70%)
Common wind-grass [32]
  J (common wind-grass) weedkilling efficacy grade: 5 (weed kill ratio 90% or more, (practically complete withering))
Chickweed [33]
  N (chickweed) weedkilling efficacy grade: 3 (weed kill ratio 40% or more, less than 70%)
black-grass [34]
  H (black-grass) weedkilling efficacy grade: 5 (weed kill ratio 90% or more, (practically complete withering))
Rapeseed [35]
  g (rapeseed) effect on crop grade: 5 (weed kill ratio 90% or more, (practically complete withering))
Catchweed [36]
  O (catchweed) weedkilling efficacy grade: 5 (weed kill ratio 90% or more, (practically complete withering))
Wheat [37]
  e (wheat) effect on crop grade: 1 (weed kill ratio 5% or more, less than 20%)
Italian ryegrass [38]
  I (Italian ryegrass) weedkilling efficacy grade: 5 (weed kill ratio 90% or more, (practically complete withering))
Soybean [39]
  d (soybean) effect on crop grade: 4 (weed kill ratio 70% or more, less than 90%)
Indian mallow [40]
  K (Indian mallow) weedkilling efficacy grade: 0 (weed kill ratio 5% or less (practically no effect))
fig-leafed goosefoot [41]
  M (fig-leafed goosefoot) weedkilling efficacy grade: 3 (weed kill ratio 40% or more, less than 70%)
Directly sown rice [42]
  b (directly sown rice) effect on crop grade: 3 (weed kill ratio 40% or more, less than 70%)
Indian mallow [43]
  K (Indian mallow) weedkilling efficacy grade: 4 (weed kill ratio 70% or more, less than 90%)
Rapeseed [44]
  g (rapeseed) effect on crop grade: 4 (weed kill ratio 70% or more, less than 90%)
